What was measured:
PCP-treated rats [1] = test: Novel object recognition test, sub-chronic PCP model of schizophrenia; format: in vivo, rat; settings: risperidone 0.1 mg/kg i.p. 60 min prior to testing
Protocol: (§1) Female hooded-Lister rats were used for this experiment. Rats were housed in groups of 5 under standard laboratory conditions under a 12 hr light: dark cycle, lights on at 0700 hr. Testing was carried out in the light phase.
(§2) Rats were randomly assigned to two treatment groups and treated with vehicle, n=20 (distilled water, i.p.) or Phencyclidine hydrochloride (PCP), n=100 (2 mg/kg, i.p. twice daily for 7-days). PCP was dissolved in distilled water. This was followed by a 7-day wash out period before the rats were tested following acute treatment with CBDV, risperidone or vehicle.
(§3) Risperidone (0.1 mg/kg) was dissolved in a minimum volume of acetic acid, made up to volume with distilled water and pH adjusted to 6 with 0.1M NaOH and administered via the i.p. route in a volume of 1 ml/kg, 60 min prior to testing.
(§4) CBDV at 2, 10 or 20 mg/kg was dissolved in 2:1:17 (Ethanol:Cremofor:Saline 0.9%) and administered via the i.p. route in a volume of 5 ml/kg, 60 min prior to testing.
Rats were allowed to habituate to the empty test box and the behavioural test room environment for 1h on day 1. Prior to behavioural testing on day 2 rats are given a further 3 min habituation.
Following the 3 min habituation period, the rats are given two 3 min trials (T1 and T2) which are separated by a 1 min inter-trial interval in the home cage during which the objects are changed. Behaviour in all trials was recorded on video for subsequent blind scoring.
In this trial, the animals are allowed to explore two identical objects (A1 and A2) for 3 min.
In this trial, the animals explore a familiar object (A) from T1 and a novel object (B) for 3 min. The familiar object presented during T2 is a duplicate of the object presented in T1 in order to avoid any olfactory trails.
The object exploration is defined by animals licking, sniffing or touching the object with the forepaws whilst sniffing, but not leaning against, turning around, standing or sitting on the object. The exploration time (s) of each object (A, B, familiar and novel) in each trial are recorded using two stopwatches and the following factors are calculated:
Discrimination index (DI), which is calculated as shown below: […]

PCP-treated rats [2] = settings: background statement; cited from earlier work
PCP-treated rats [3] = test: Social interaction test, sub-chronic PCP model of schizophrenia; format: in vivo, rat
Protocol: as §1, §2, §3, §4
The social interaction test is performed in an open-field comprising a square box made of Plexiglas (52×52×31 cm) placed 27 cm above the floor on a moveable trolley. The floor of the box is white with black gridlines forming 9 identical squares on it. All other walls are black. A video camera connected to a video recorder and monitor is positioned above the box. The object used for the test consists of a heavy structure made of metal that cannot be displaced by the animals.
The rats were habituated to the test environment and arena prior to the test day. Habituation consists of placing all rats from one cage together in the empty test arena for one hour for three days including the day before the test day.
Pairs of rats, weight matched (15-20 g) and unfamiliar to each other, receiving either no treatment (n=70 “conspecific” rats) or different treatments (PCP and Vehicle; n=10 “tested” rats or PCP+Drug; n=50 “tested” rats) were placed in the test arena together for 10 min and behaviour assessed as described below.
An inanimate object such as an unopened drinks can is also placed in the centre of the arena to measure any differences in interaction of the test animal with an unfamiliar animal as opposed to an unfamiliar object. After each 10 minute trial, the object and arena are cleaned with 10% alcohol in an attempt to remove traces of any olfactory cues. All testing is carried out under standard room illumination levels (70 cd/m2).
Behaviour in both trials was recorded on video for subsequent blind scoring. A behavioural scoring software program (Hindsight, Scientific programming services) is used to score the following parameters: • Investigative sniffing behaviour: sniffing the conspecific's snout or parts of the body including the anogenital region; • Following: rat moves after the conspecific i.e. a vehicle treated rat of the same species, around the arena; • Avoidances: actively turning away when approached by the conspecific animal; • Investigation of object: exploration of object placed in centre of the arena; and • Locomotor activity is recorded by counting the total number of sectors (i.e. lines) crossed by the test rat. Results

## Cc1nc2n(c(=O)c1CCN1CCC(c3noc4cc(F)ccc34)CC1)CCCC2 [risperidone, reference compound]
PCP-treated rats [1]
  time spent investigating two identical objects in Trial 1 (FIG. 16A): no real preference
PCP-treated rats [2]
  PCP-induced deficit in the novel object recognition (NOR) test: can attenuate the deficit
PCP-treated rats [3]; risperidone 0.1 mg/kg i.p.
  PCP effects on social interaction (sniffing, following, avoiding) (FIG. 18): reverse these effects in a statistically significant manner
PCP-treated rats [3]; risperidone 0.1 mg/kg, time increased over PCP alone
  time spent following the other rat (FIG. 18B): not seen to be significant

From patent publication US11752111B2, “Use of cannabidivarin in the treatment of autism spectrum disorder, associated disorders and schizophrenia” (GW Research Limited, priority 2016, dated 2023)
